Laboratory results as given in patent US8257965B2, “Arrays of biological membranes and methods and use thereof” (Corning Incorporated, priority 2001, dated 2012).
Each block holds one molecule with its values, some of them ahead of it.

How the values were obtained:
[1] = biological target: Gi1 (Homo sapiens, UniProt P63096); conditions: unactivated form, reconstituted vesicle systems (McEwen et al.); cited from earlier work
[2] = biological target: Go (Homo sapiens, UniProt P09471); conditions: unactivated form, reconstituted vesicle systems (McEwen et al.); cited from earlier work
[3] = biological target: Gi2 (Homo sapiens, UniProt P04899); conditions: unactivated form, reconstituted vesicle systems (McEwen et al.); cited from earlier work
[4] = biological target: Gs (Homo sapiens, UniProt P63092); conditions: unactivated form, reconstituted vesicle systems (McEwen et al.); cited from earlier work
[5] = biological target: T1, α2A (Homo sapiens, UniProt P08913); conditions: known value; cited from earlier work
T1 sequence (P08913 1-465): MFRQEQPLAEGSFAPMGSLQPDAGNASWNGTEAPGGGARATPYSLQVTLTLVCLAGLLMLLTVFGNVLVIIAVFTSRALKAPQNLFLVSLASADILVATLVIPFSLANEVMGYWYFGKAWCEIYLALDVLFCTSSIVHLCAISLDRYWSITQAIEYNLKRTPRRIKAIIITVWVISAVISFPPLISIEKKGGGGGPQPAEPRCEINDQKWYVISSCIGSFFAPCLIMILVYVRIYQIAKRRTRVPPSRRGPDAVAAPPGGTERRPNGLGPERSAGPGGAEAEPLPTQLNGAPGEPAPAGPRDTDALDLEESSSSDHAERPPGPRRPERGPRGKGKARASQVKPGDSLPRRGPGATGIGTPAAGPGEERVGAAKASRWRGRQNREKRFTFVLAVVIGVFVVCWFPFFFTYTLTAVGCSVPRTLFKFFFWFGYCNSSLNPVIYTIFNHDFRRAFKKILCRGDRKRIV

[6] = biological target: β1 (Homo sapiens, UniProt P08588); assay: Family-specific adrenergic receptor array, competition with BODIPY-TMR-CGP12177; type: binding
Experimental: FIGS. 9A, 9B and 9C illustrate GPCR theme arrays used to differentiate the selectivity of compounds of interest to receptors relating to a single subfamily. Multiple arrays of β1, β2 and α2A were fabricated on an APTES-modified gold surface. Within each array there were three columns of five replicates, corresponding to β1, β2 and α2A from the left to right column, respectively. The array incubated with 5 nM BT-CGP only was used as positive control (FIG. 9A). […] Three receptors belonging to the same family, adrenergic receptors, were arrayed within a single grid, and replicates of this grid were arrayed on a single slide. The receptors were β1, β2 and α2A, respectively.

[7] = biological target: T2, neurotensin receptor subtype 1 (NTR1) (Homo sapiens, UniProt P30989); assay: Competition binding of BT-neurotensin to NTR1 receptor arrays on CMT-GAPS slides; conditions: BT-NT 2 nM, unlabeled ligand 1 μM
T2 construct: purchased Perkin Elmer Life Science (Boston, Mass.)
T2 sequence (P30989 whole entry): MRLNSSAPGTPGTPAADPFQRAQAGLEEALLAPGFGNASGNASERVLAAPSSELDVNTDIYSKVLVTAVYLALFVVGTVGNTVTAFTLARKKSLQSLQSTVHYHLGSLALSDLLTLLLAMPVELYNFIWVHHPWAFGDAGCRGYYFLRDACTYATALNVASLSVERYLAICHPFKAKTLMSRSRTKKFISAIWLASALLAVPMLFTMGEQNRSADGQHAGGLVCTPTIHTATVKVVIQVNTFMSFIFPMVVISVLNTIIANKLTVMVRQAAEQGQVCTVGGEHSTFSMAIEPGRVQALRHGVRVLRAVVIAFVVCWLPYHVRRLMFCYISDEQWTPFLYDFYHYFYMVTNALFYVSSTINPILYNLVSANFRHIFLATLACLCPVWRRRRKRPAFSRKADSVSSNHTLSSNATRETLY

β1, sequence (P08588 whole entry): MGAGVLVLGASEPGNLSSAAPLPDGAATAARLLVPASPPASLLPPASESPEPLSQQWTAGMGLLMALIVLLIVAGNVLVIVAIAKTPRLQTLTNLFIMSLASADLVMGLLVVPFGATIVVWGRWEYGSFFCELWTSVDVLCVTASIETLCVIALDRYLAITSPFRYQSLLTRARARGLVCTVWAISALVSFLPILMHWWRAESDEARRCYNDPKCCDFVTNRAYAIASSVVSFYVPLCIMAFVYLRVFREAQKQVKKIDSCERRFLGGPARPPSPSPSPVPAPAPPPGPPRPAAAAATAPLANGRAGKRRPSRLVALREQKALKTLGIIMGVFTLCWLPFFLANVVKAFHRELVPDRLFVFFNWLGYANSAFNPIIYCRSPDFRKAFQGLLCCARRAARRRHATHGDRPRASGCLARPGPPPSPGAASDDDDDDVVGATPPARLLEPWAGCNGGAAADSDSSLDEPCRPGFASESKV
Gi1, sequence (P63096 whole entry): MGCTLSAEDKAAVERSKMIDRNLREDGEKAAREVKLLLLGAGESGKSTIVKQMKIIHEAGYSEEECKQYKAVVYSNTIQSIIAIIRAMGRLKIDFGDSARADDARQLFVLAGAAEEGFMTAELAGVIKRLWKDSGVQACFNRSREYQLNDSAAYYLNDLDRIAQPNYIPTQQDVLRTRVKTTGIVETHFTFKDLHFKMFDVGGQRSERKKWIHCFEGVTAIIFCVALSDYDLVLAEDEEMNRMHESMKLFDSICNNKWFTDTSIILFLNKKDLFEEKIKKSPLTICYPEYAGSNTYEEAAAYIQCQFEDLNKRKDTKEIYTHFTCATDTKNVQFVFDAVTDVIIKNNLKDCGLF
Gi2, sequence (P04899 whole entry): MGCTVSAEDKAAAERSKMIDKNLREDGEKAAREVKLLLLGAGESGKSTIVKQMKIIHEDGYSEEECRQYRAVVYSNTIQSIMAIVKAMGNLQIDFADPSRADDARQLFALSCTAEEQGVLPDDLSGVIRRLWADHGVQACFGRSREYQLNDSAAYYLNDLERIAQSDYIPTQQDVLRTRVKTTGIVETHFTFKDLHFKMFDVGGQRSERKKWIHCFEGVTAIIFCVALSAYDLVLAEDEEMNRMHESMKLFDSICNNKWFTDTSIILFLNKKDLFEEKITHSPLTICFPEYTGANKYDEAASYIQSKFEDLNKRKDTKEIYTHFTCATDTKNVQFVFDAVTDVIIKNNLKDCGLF
Go, sequence (P09471 whole entry): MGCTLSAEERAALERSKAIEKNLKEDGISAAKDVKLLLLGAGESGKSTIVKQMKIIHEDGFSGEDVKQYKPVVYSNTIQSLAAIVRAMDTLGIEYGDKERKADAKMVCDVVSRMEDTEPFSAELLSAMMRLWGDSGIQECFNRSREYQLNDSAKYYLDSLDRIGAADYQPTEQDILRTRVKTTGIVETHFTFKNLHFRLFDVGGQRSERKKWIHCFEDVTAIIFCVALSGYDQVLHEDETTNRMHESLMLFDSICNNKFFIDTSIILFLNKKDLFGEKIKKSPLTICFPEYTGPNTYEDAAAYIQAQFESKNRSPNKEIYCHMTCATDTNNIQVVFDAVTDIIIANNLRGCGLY
Gs, sequence (P63092 whole entry): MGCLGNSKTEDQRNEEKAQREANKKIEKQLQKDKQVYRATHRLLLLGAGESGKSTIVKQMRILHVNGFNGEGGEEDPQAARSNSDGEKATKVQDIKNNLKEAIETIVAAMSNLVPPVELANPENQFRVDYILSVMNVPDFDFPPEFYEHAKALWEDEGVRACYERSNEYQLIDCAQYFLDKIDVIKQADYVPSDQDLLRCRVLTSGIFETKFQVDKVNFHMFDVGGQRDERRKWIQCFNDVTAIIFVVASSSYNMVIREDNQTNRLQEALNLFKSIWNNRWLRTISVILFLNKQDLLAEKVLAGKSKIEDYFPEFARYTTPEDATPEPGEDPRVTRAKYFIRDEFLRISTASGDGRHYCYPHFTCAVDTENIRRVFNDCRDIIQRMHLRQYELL

Molecule: BODIPY-FL-GTPγS
- Kd [1]: 0.15 µM
- Kd [2]: 0.006 µM
- Kd [3]: 0.3 µM
- Kd [4]: 0.07 µM

- fluorescence intensity of the β1 receptors ([6]; 5 nM BODIPY-TMR-CGP12177, 10 nM ICI118551): remains almost at the same level
- fluorescence intensity of β1 ([6]; 5 nM BODIPY-TMR-CGP12177, 500 nM ICI118551): dramatically decreases
Molecule: Cc1ccc(OCC(O)C(C)NC(C)C)c2c1CCC2 (centres unmarked) [ICI 118551]
- Ki [5]: > 10 µM

- effect on intensities of NTR1 spots (inhibition of BT-NT binding) [7]: no significant decrease
Molecule: CC(C)(C)NCC(O)COc1cccc2[nH]c(=O)[nH]c12 (centres unmarked) [CGP12177]
